The values below come from ChEMBL document CHEMBL4052803, “Synthesis and anti-tumor evaluation of panaxadiol halogen-derivatives” (Bioorg Med Chem Lett, 2017).

Test [1] has as its system SW480. The test is described as follows: Antiproliferative activity against human SW480 cells after 48 hrs by MTT assay. It is filed as functional, cell-based. The conditions noted are these: SW480, 48 h. In general terms: Tetrazolium dyes change colour on reduction, which living cells bring about.
Test [2] deals with HCT-116. The test is described as follows: Antiproliferative activity against human HCT116 cells after 48 hrs by MTT assay. The conditions noted are these: HCT-116, 48 h. The test is classed as functional, cell-based.
For test [3], the system named is BGC-823. As to the kind of experiment: Antiproliferative activity against human BGC823 cells after 48 hrs by MTT assay. It is filed as functional, cell-based. The conditions noted are these: BGC-823, 48 h.
The subject of test [4] is GES1. The test is described as follows: Antiproliferative activity against human GES-1 cells after 48 hrs by MTT assay. The test is classed as cell-based. The conditions noted are these: GES1, 48 h.
Test [5] is described as follows: Antiproliferative activity against HHDPC cells after 48 hrs by MTT assay. It is filed as cell-based. The settings on record: Homo sapiens.
For test [6], the system named is H9c2. As to the kind of experiment: Antiproliferative activity against rat H9c2 cells after 48 hrs by MTT assay. The test is classed as cell-based. The settings on record: H9c2, 48 h.

As usually defined, the IC50 is the concentration at which inhibition is half-maximal.

Take `CC1(C)CCC[C@@](C)([C@H]2CC[C@]3(C)[C@@H]2[C@H](O)C[C@@H]2[C@@]4(C)CC[C@H](OC(=O)CCl)C(C)(C)[C@@H]4CC[C@]23C)O1`: the IC50 in test [1] is 15.8 µM; in test [2] it was 42.3 µM; in test [3] it was 17.1 µM; in test [4] it was 107 µM; in test [5], 120 µM; in test [6], 121 µM.
Consider `CC1(C)CCC[C@@](C)([C@H]2CC[C@]3(C)[C@@H]2[C@H](O)C[C@@H]2[C@@]4(C)CC[C@H](O)C(C)(C)[C@@H]4CC[C@]23C)O1`, for which the IC50 in test [1] was 73.4 µM; in test [2] it was above 100 µM; in test [3], 80.1 µM; in test [4] it was 116 µM; in test [5], 141 µM; in test [6], 214 µM.
Consider `C/C(=C\CCC(C)(C)O)[C@H]1CC[C@]2(C)[C@@H]1[C@H](OC(=O)CBr)C[C@@H]1[C@@]3(C)CC[C@H](OC(=O)CBr)C(C)(C)[C@@H]3CC[C@]12C`, for which the IC50 is 1.22 µM in test [1]; 50.9 µM in test [2]; 1.08 µM in test [3]; 35.1 µM in test [4]; 42.1 µM in test [5]; 36.6 µM in test [6].
With `CC(C)=CC/C=C(\C)[C@H]1CC[C@]2(C)C1=CC[C@@H]1[C@@]3(C)CC[C@H](OC(=O)CBr)C(C)(C)[C@@H]3CC[C@]12C`, the half-inhibitory concentration (IC50) in test [1] was 39.4 µM; in test [2], 3.59 µM; in test [4] it was 77.6 µM; in test [5], 90.6 µM; in test [6], 131 µM.
`C/C(=C\CCC(C)(C)O)[C@H]1CC[C@]2(C)[C@@H]1[C@H](OC(=O)CCl)C[C@@H]1[C@@]3(C)CC[C@H](OC(=O)CCl)C(C)(C)[C@@H]3CC[C@]12C`: the IC50 was 5.49 µM in test [1]; 8.33 µM in test [2]; 4.28 µM in test [3]; 110 µM in test [4]; 61.9 µM in test [5]; 86.2 µM in test [6].
Regarding `CC1(C)CCC[C@](C)([C@H]2CC[C@]3(C)[C@@H]2[C@H](OC(=O)CBr)C[C@@H]2[C@@]4(C)CC[C@H](OC(=O)CBr)C(C)(C)[C@@H]4CC[C@]23C)O1`, the IC50 stood at 15.2 µM in test [1]; 3.86 µM in test [2]; 15.6 µM in test [3]; 99.4 µM in test [4]; 140 µM in test [5]; 158 µM in test [6].
Turning to `CC1(C)CCC[C@](C)([C@H]2CC[C@]3(C)[C@@H]2[C@H](OC(=O)CCl)C[C@@H]2[C@@]4(C)CC[C@H](OC(=O)CCl)C(C)(C)[C@@H]4CC[C@]23C)O1`, the IC50 is above 100 µM in test [1]; above 100 µM in test [2]; above 100 µM in test [3]; 180 µM in test [4]; 226 µM in test [5]; above 500 µM in test [6].
As to `C/C(=C\CCC(C)(C)O)[C@H]1CC[C@]2(C)[C@@H]1[C@H](OC(=O)CBr)C[C@@H]1[C@@]3(C)CC[C@H](O)C(C)(C)[C@@H]3CC[C@]12C`, the IC50 came to 0.118 µM in test [1]; 5.34 µM in test [2]; 0.622 µM in test [3]; 26.1 µM in test [4]; 36.4 µM in test [5]; 48.8 µM in test [6].
For the compound `CC(C)(CCC[C@@]1(C)O[C@@H]2C[C@@H]3[C@@]4(C)CC[C@H](OC(=O)CCl)C(C)(C)[C@@H]4CC[C@@]3(C)[C@]3(C)CC[C@H]1[C@@H]23)OC(=O)CCl`, the IC50 was 30.4 µM in test [1]; 42.3 µM in test [2]; above 100 µM in test [3]; 125 µM in test [4]; 100 µM in test [5]; 281 µM in test [6].
Regarding `C/C(=C\CCC(C)(C)OC(=O)CBr)[C@H]1CC[C@]2(C)C1=CC[C@@H]1[C@@]3(C)CC[C@H](OC(=O)CBr)C(C)(C)[C@@H]3CC[C@]12C`, the IC50 was determined as 31.4 µM in test [1]; 7.14 µM in test [2]; 82.1 µM in test [3]; 142 µM in test [4]; 200 µM in test [5]; 161 µM in test [6].
In the case of `CC(C)=CC/C=C(\C)[C@H]1CC[C@]2(C)[C@@H]1[C@H](OC(=O)CCl)C[C@@H]1[C@@]3(C)CC[C@H](OC(=O)CCl)C(C)(C)[C@@H]3CC[C@]12C`, the IC50 in test [1] is 13.7 µM; in test [2], 12.6 µM; in test [3], above 100 µM; in test [4], 100 µM; in test [5] it was 89.5 µM; in test [6], 180 µM.
In the case of `CC1(C)CCC[C@@](C)([C@H]2CC[C@]3(C)[C@@H]2[C@H](O)C[C@@H]2[C@@]4(C)CC[C@H](OC(=O)CBr)C(C)(C)[C@@H]4CC[C@]23C)O1`, the IC50 was found to be 14.2 µM in test [1]; 14.7 µM in test [3]; 115 µM in test [4]; 118 µM in test [5]; 120 µM in test [6].
For `CC(C)=CC/C=C(\C)[C@H]1CC[C@]2(C)[C@@H]1[C@H](Br)C[C@@H]1[C@@]3(C)CC[C@H](OC(=O)CBr)C(C)(C)[C@@H]3CC[C@]12C`, the IC50 in test [1] came out at 18 µM; in test [2], 58.1 µM; in test [3], 95 µM; in test [4], 121 µM; in test [5], 157 µM; in test [6], 250 µM.
